Data published in publication PMC11279468, “Exploring a New Generation of Pyrimidine and Pyridine Derivatives as Anti-Influenza Agents Targeting the Polymerase PA–PB1 Subunits Interaction” (Pharmaceutics, 2024).
Like-named read-outs stand apart in the source and are kept apart here.

Experiments:
[1] = tested on: Influenza virus strain A/PR/8/34 (H1N1)
[2] = tested on: Influenza virus strain A/PR/8/34 (H1N1); experiment: microbe, parasite or virus in culture; settings: unidentified influenza virus, MDCK, read-out: EC50 (PRA)
[3] = biological target: PA–PB1 interaction (6His-PA(239–716) / GST-PB1(1–25)) (Influenza A virus, UniProt P03433); experiment: biochemical; type: binding
in vitro = settings: dog
Protocol: (§1) The cytotoxicity of compounds was tested in MDCK cells using the 3-(4,5-dimethylthiazol-2-yl)-2,5-diphenyl tetrazolium bromide (MTT) method, as previously reported [32]. Briefly, MDCK cells (seeded at a density of 2 × 10^4 per well) were grown in 96-well plates for 24 h and then treated with serial dilutions of test compounds, or DMSO as a control, in DMEM supplemented with 10% FBS. After incubation at 37 °C for 48 h, 5 mg/mL of MTT (Sigma, Tokyo, Japan) in PBS was added into each well and incubated at 37 °C for a further 4 h. Successively, a solubilization solution was added to lyse the cells and incubated overnight at 37 °C. Finally, optical density was read at the wavelength of 570 nm on a microtiter plate reader (MultiSkan FC, ThermoFisher Scientific).

MDCK cells [4] = experiment: Cytotoxicity assay (MTT) in MDCK cells; settings: read-out: CC50 (MDCK Cells); MTT assay, MDCK cells, 48 h; 50% decrease in cell viability
Protocol: as §1

[5] = Cytotoxicity assay (MTT) in MDCK cells
Protocol: as §1

MDCK cells [6] = tested on: MDCK cells
Protocol: as §1

SMILES	melting point [°C]	EC50 [2] [µM]	IC50 [3] [µM]	CC50 at 48 h (in vitro) [µM]	cytotoxicity (in words) (MDCK cells [6])	further results
Cc1cccc(NC(=O)CSc2nc(-c3ccccc3)cc(-c3ccc(F)cc3)n2)c1 [Compound 2d, 2-{[4-(4-Fluorophenyl)-6-phenylpyrimidin-2-yl]thio}-N-(m-tolyl)acetamide]	186 to 190	2.8 ± 0.6	90.1 ± 30.2	> 250	–	antiviral activity relative to RBV [1]: almost five-fold more active than RBV
CCC(CC)O[C@@H]1C=C(C(=O)O)C[C@H](N)[C@H]1NC(C)=O [OSC, oseltamivir carboxylate]	–	–	–	–	–	CC50 (MDCK cells [4]): > 250 µM; EC50 ([1]; read-out: EC50 (PRA)): 0.04 ± 0.01 µM
NC(=O)c1ncn(C2O[C@H](CO)[C@@H](O)[C@H]2O)n1 (stereo partly drawn) [RBV, 1-D-ribofuranosyl-1,2,4-triazole-3-carboxamide, reference compound]	–	12.8 ± 3.2	–	–	–	CC50 at 48 h ([5]; dog, MDCK cells): > 250 µM
CSCC[C@H](N)C(=O)N[C@@H](CC(=O)O)C(=O)N[C@H](C(=O)N[C@@H](CC(N)=O)C(=O)N1CCC[C@H]1C(=O)N[C@H](C(=O)N[C@@H](CC(C)C)C(=O)N[C@@H](CC(C)C)C(=O)N[C@@H](Cc1ccccc1)C(=O)N[C@@H](CC(C)C)C(=O)N[C@@H](CCCCN)C(=O)N[C@H](C(=O)N1CCC[C@H]1C(=O)N[C@@H](C)C(=O)N[C@@H](CCC(N)=O)C(=O)N[C@@H](Cc1ccc(O)cc1)C(=O)NCC(=O)N[C@@H](CCCNC(=N)N)C(=O)N[C@@H](CCCCN)C(=O)N[C@@H](CCCCN)C(=O)N[C@@H](CCCNC(=N)N)C(=O)N[C@@H](CCCNC(=N)N)C(=O)N[C@@H](CCC(N)=O)C(=O)N[C@@H](CCCNC(=N)N)C(=O)N[C@@H](CCCNC(=N)N)C(=O)N[C@@H](CCCNC(=N)N)C(=O)N1CCC[C@H]1C(=O)N1CCC[C@H]1C(=O)O)C(C)C)[C@@H](C)O)C(C)C [PB1(1–15)-Tat peptide]	–	–	–	–	–	CC50 [5]: > 250 µM; EC50 ([1]; Influenza virus strain A/PR/8/34, 24 h): 49.7 ± 5.1 µM
Cc1cccc(NC(=O)CSc2nc(Sc3ccccc3)cc(-c3ccc(Cl)cc3)n2)c1 [Compound 2j, 2-{[4-(4-Chlorophenyl)-6-(phenylthio)pyrimidin-2-yl]thio}-N-(m-tolyl)acetamide]	150 to 154	32.9 ± 4.1	> 200	16 ± 4.2	high cytotoxicity	–
Cc1cccc(NC(=O)CSc2nc(C(=O)Nc3ccccc3)cc(-c3ccccc3)n2)c1 [Compound 2l, 2-{[2-oxo-2-(m-tolylamino)ethyl]thio}-N,6-diphenylpyrimidine-4-carboxamide]	181 to 182	13 ± 5.5	125 ± 37	46.3 ± 10.4	high cytotoxicity	–
Cc1cccc(NC(=O)CSc2nc(Sc3ccccc3)cc(-c3ccc(F)cc3)n2)c1 [Compound 2k]	146 to 147	16.4 ± 1.9	159 ± 29	48.2 ± 2.5	high cytotoxicity	–
